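The concentration for 50% growth inhibition is given as GI50. TGI: total growth inhibition.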
Tests used:
Test in all cases: NCI anticancer screen, dose series, 384-well format
OVCAR-4 ovarian = test system: OVCAR-4 ovarian
BT-549 breast = test system: BT-549 breast
NCI/ADR-RES ovarian = test system: NCI/ADR-RES ovarian
HT29 colon = test system: HT29 colon
KM12 colon = test system: KM12 colon
NCI-H522 lung = test system: NCI-H522 lung
HOP-92 NSCLC = test system: HOP-92 NSCLC
A498 renal = test system: A498 renal
LOX IMVI melanoma = test system: LOX IMVI melanoma
NCI-H23 lung = test system: NCI-H23 lung
SNB-19 CNS = test system: SNB-19 CNS
MCF7 breast = test system: MCF7 breast
COLO 205 colon = test system: COLO 205 colon
NCI-H322M lung = test system: NCI-H322M lung
CAKI-1 renal = test system: CAKI-1 renal
HCC-2998 colon = test system: HCC-2998 colon
NCI-H226 lung = test system: NCI-H226 lung
OVCAR-8 ovarian = test system: OVCAR-8 ovarian
SK-MEL-28 melanoma = test system: SK-MEL-28 melanoma
PC-3 prostate = test system: PC-3 prostate
UACC-257 melanoma = test system: UACC-257 melanoma
MDA-MB-231 breast = test system: MDA-MB-231 breast
MDA-MB-468 breast = test system: MDA-MB-468 breast
IGROV1 ovarian = test system: IGROV1 ovarian
SN12C renal = test system: SN12C renal
HS 578T breast = test system: HS 578T breast
HL-60(TB) leukemia = test system: HL-60(TB) leukemia
HCT-15 colon = test system: HCT-15 colon
SNB-75 CNS = test system: SNB-75 CNS
SK-OV-3 ovarian = test system: SK-OV-3 ovarian
DU-145 prostate = test system: DU-145 prostate
UACC-62 melanoma = test system: UACC-62 melanoma
EKVX NSCLC = test system: EKVX NSCLC
HCT-116 colon = test system: HCT-116 colon
SK-MEL-5 melanoma = test system: SK-MEL-5 melanoma
RPMI-8226 leukemia = test system: RPMI-8226 leukemia
OVCAR-5 ovarian = test system: OVCAR-5 ovarian
OVCAR-3 ovarian = test system: OVCAR-3 ovarian
NCI-H460 NSCLC = test system: NCI-H460 NSCLC
T-47D breast = test system: T-47D breast
RXF 393 renal = test system: RXF 393 renal
A549 NSCLC = test system: A549 NSCLC
SF-268 CNS = test system: SF-268 CNS
U251 glioblastoma = test system: U251 glioblastoma
SR leukemia = test system: SR leukemia
MOLT-4 leukemia = test system: MOLT-4 leukemia

`Cn1cc(-c2cnn3c(N)c(Br)c(C4CCCNC4)nc23)cn1` (stereo unspecified) was tested, and the GI50 (OVCAR-4 ovarian) was < 0.01 µM, the TGI (OVCAR-4 ovarian) was 26.6 µM and the GI50 (BT-549 breast) was 0.033 µM. The TGI (BT-549 breast) was 5.25 µM, the GI50 (NCI/ADR-RES ovarian) was 2.04 µM and the TGI (NCI/ADR-RES ovarian) was > 100 µM. For the same compound, the GI50 (HT29 colon) was 0.989 µM, the TGI (HT29 colon) was 12.9 µM and the GI50 (KM12 colon) was 0.117 µM. The TGI (KM12 colon) was 15.8 µM, the GI50 (NCI-H522 lung) was 2.56 µM and the TGI (NCI-H522 lung) was 11.4 µM. The GI50 (HOP-92 NSCLC) was 0.0263 µM, the TGI (HOP-92 NSCLC) was 33.3 µM and the GI50 (A498 renal) was < 0.01 µM. For the same compound, the TGI (A498 renal) was 0.0226 µM, the GI50 (LOX IMVI melanoma) was 1.33 µM and the TGI (LOX IMVI melanoma) was 4.22 µM. It also gave a GI50 (NCI-H23 lung) of 0.027 µM, a TGI (NCI-H23 lung) of 21.2 µM and a GI50 (SNB-19 CNS) of 0.983 µM. The TGI (SNB-19 CNS) was 37.1 µM, the GI50 (MCF7 breast) was 1.36 µM and the TGI (MCF7 breast) was 17.9 µM. It also gave a GI50 (COLO 205 colon) of 0.922 µM, a TGI (COLO 205 colon) of 5.81 µM and a GI50 (NCI-H322M lung) of 0.293 µM. It also gave a TGI (NCI-H322M lung) of 22.1 µM, a GI50 (CAKI-1 renal) of 1.46 µM and a TGI (CAKI-1 renal) of 15.2 µM. The GI50 (HCC-2998 colon) was < 0.01 µM, the TGI (HCC-2998 colon) was 0.0624 µM and the GI50 (NCI-H226 lung) was 3.29 µM. It also gave a TGI (NCI-H226 lung) of 18.6 µM, a GI50 (OVCAR-8 ovarian) of 0.0382 µM and a TGI (OVCAR-8 ovarian) of 21.2 µM. For the same compound, the GI50 (SK-MEL-28 melanoma) was 11.1 µM, the TGI (SK-MEL-28 melanoma) was 26.5 µM and the GI50 (PC-3 prostate) was 1.8 µM. For the same compound, the TGI (PC-3 prostate) was 14.6 µM, the GI50 (UACC-257 melanoma) was 2.29 µM and the TGI (UACC-257 melanoma) was 19.5 µM. For the same compound, the GI50 (MDA-MB-231 breast) was 2.9 µM, the TGI (MDA-MB-231 breast) was 42.2 µM and the GI50 (MDA-MB-468 breast) was 3.75 µM. It also gave a TGI (MDA-MB-468 breast) of 24.4 µM, a GI50 (IGROV1 ovarian) of 0.0563 µM and a TGI (IGROV1 ovarian) of 13.2 µM. The GI50 (SN12C renal) was 0.0371 µM, the TGI (SN12C renal) was 3.72 µM and the GI50 (HS 578T breast) was 0.0302 µM. It also gave a TGI (HS 578T breast) of 18.9 µM, a GI50 (HL-60(TB) leukemia) of 0.032 µM and a TGI (HL-60(TB) leukemia) of 0.129 µM. For the same compound, the GI50 (HCT-15 colon) was 2.08 µM, the TGI (HCT-15 colon) was 19.4 µM and the GI50 (SNB-75 CNS) was 4.99 µM. The TGI (SNB-75 CNS) was 25.3 µM, the GI50 (SK-OV-3 ovarian) was 0.0621 µM and the TGI (SK-OV-3 ovarian) was 23.2 µM. The GI50 (DU-145 prostate) was 0.227 µM, the TGI (DU-145 prostate) was 15.6 µM and the GI50 (UACC-62 melanoma) was 0.88 µM. The TGI (UACC-62 melanoma) was 15.3 µM, the GI50 (EKVX NSCLC) was 3.54 µM and the TGI (EKVX NSCLC) was 23.8 µM. It also gave a GI50 (HCT-116 colon) of 2.01 µM, a TGI (HCT-116 colon) of 15.6 µM and a GI50 (SK-MEL-5 melanoma) of 0.0346 µM. It also gave a TGI (SK-MEL-5 melanoma) of 1.2 µM, a GI50 (RPMI-8226 leukemia) of 0.0358 µM and a TGI (RPMI-8226 leukemia) of 0.643 µM. For the same compound, the GI50 (OVCAR-5 ovarian) was 0.0964 µM, the TGI (OVCAR-5 ovarian) was 16.5 µM and the GI50 (OVCAR-3 ovarian) was 0.188 µM. It also gave a TGI (OVCAR-3 ovarian) of 20.3 µM, a GI50 (NCI-H460 NSCLC) of 0.93 µM and a TGI (NCI-H460 NSCLC) of 10.9 µM. It also gave a GI50 (T-47D breast) of 14.6 µM, a TGI (T-47D breast) of 37.1 µM and a GI50 (RXF 393 renal) of 0.0332 µM. The TGI (RXF 393 renal) was 25 µM, the GI50 (A549 NSCLC) was 7.68 µM and the TGI (A549 NSCLC) was 28.6 µM. It also gave a GI50 (SF-268 CNS) of 5.36 µM, a TGI (SF-268 CNS) of 27.2 µM and a GI50 (U251 glioblastoma) of 5.36 µM. The TGI (U251 glioblastoma) was 20.3 µM, the GI50 (SR leukemia) was < 0.01 µM and the GI50 (MOLT-4 leukemia) was 0.0234 µM. For the same compound, the TGI (MOLT-4 leukemia) was 0.053 µM.
